This experiment concerns the target T1, IKK2 (Homo sapiens, UniProt O14920).
T1 construct: made in house; host or cells: insect cells (baculovirus, pFastBac; SF9)
T1 sequence (O14920 1-756): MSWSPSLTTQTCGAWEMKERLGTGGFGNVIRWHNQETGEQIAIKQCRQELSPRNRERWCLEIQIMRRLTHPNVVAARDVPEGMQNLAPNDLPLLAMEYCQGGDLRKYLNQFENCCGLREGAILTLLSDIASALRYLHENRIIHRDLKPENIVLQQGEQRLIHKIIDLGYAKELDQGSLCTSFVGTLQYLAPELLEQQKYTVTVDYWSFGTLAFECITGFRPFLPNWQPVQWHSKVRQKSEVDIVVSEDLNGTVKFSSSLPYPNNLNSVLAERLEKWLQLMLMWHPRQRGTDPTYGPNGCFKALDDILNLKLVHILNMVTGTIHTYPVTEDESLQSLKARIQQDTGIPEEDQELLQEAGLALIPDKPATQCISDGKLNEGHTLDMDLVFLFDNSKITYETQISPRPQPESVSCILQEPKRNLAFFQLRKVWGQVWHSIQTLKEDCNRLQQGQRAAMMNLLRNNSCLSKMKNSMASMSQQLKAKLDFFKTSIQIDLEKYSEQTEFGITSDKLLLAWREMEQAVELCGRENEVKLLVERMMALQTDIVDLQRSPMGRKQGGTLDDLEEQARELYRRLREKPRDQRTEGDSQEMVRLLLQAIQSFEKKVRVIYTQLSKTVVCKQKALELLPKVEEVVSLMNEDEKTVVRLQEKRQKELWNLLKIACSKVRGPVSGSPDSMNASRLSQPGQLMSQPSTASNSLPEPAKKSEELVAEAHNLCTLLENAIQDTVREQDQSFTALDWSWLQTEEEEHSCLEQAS
Description: IKKβ Resin Enzyme Assay (IKK2 resin). Type of experiment: biochemical. In outline:
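Enzyme: human IKK2 with a C-terminal FLAG tag, baculovirus-expressed, purified as homodimer on anti-FLAG resin. It phosphorylates a biotinylated IκBα peptide with 1 μM ATP plus [γ-33P]ATP in 25 mM Hepes pH 7.6, Mg/Mn, for 30 min at 25° C. Incorporation is counted by scintillation after anion-exchange resin stop.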

[1] abbreviates: Table 18, read-out: IKK2 Resin IC50.
Setting [2] is: Table 4, read-out: IKK2 Resin IC50.
Setting [3] is: Table 14, read-out: IKK2 Resin IC50.
The mark [4] stands for this setting: Table 6, read-out: IKK2 Resin IC 50.
Setting [5] is: Table 3, read-out: IKK Resin IC50.

pIC50: −log10 of the molar value. Like-named read-outs stand apart in the source and are kept apart here.

Take `CCS(=O)(=O)c1ccc(-n2nc(C(N)=O)c3c2-c2cc(NC(=O)c4cccnc4Cl)ccc2CC3)cc1` [Example 396, 8-{[(2-chloropyridin-3-yl)carbonyl]amino}-1-[4-(ethylsulfonyl)phenyl]-4,5-dihydro-1H-benzo[g]indazole-3-carboxamide]: the pIC50 under setting [1] was at least 6.00. Same read-out and setting: then `CC(C)S(=O)(=O)c1ccc(-n2nc(C(N)=O)c3c2-c2cc(NC(=O)c4ccccc4Cl)ccc2CC3)cc1` [Example 393, 8-[(2-chlorobenzoyl)amino]-1-[4-(isopropylsulfonyl)phenyl]-4,5-dihydro-1H-benzo[g]indazole-3-carboxamide], with at least 6.00. Consider `NC(=O)c1nn(-c2ccc(C#CCCCO)cc2)c2c1CCc1ccc(NC(=O)c3cccnc3Cl)cc1-2` [Example 387, 8-{[(2-chloropyridin-3-yl)carbonyl]amino}-1-[4-(5-hydroxypent-1-ynyl)phenyl]-4,5-dihydro-1H-benzo[g]indazole-3-carboxamide], for which the pIC50 (Table 17, read-out: IKK2 Resin IC50) was at least 6.00. On to `NC(=O)c1nn(-c2ccc3c(c2)OCO3)c2c1CCc1ccc(NC(=O)c3c(N)cccc3Cl)cc1-2` [Example 169, 8-[(2-amino-6-chlorobenzoyl)amino]-1-(1,3-benzodioxol-5-yl)-4,5-dihydro-1H-benzo[g]indazole-3-carboxamide], for which the pIC50 under setting [2] was at least 6.00.

Regarding `NC(=O)c1nn(-c2ccc(S(=O)(=O)C(F)(F)F)cc2)c2c1CCc1ccc(NC(=O)c3cccnc3Cl)cc1-2` [Example 359, 8-{[(2-chloropyridin-3-yl)carbonyl]amino}-1-{4-[(trifluoromethyl)sulfonyl]phenyl}-4,5-dihydro-1H-benzo[g]indazole-3-carboxamide], the pIC50 under setting [3] was at least 6.00. Take `CN(C)c1ccc(Cl)c(C(=O)Nc2ccc3c(c2)-c2c(c(C(N)=O)nn2-c2ccc(F)cc2)CC3)c1` [Example 237, 8-{[2-chloro-5-(dimethylamino)benzoyl]amino}-1-(4-fluorophenyl)-4,5-dihydro-1H-benzo[g]indazole-3-carboxamide]: the pIC50 under setting [4] was at least 6.00.

Consider `NC(=O)c1nn(-c2ccc(N3CCOCC3)cc2)c2c1CCc1ccc(NC(=O)c3cccnc3Cl)cc1-2` [Example 288, 8-{[(2-chloropyridin-3-yl)carbonyl]amino}-1-(4-morpholin-4-ylphenyl)-4,5-dihydro-1H-benzo[g]indazole-3-carboxamide], for which the pIC50 (read-out: IKK-2 resin IC50) was 5.00 to 6.00. Consider `COCC(=O)Nc1ccc(-n2nc(C(N)=O)c3c2-c2cc(NC(=O)c4ccccc4Cl)ccc2CC3)cc1` [Example 374, 8-[(2-chlorobenzoyl)amino]-1-{4-[(methoxyacetyl)amino]phenyl}-4,5-dihydro-1H-benzo[g]indazole-3-carboxamide], for which, where the note is “Table 15, read-out: IKK2 Resin IC50”, the pIC50 is at least 6.00.

Turning to `CS(=O)(=O)c1ccc(-n2nc(C(N)=O)c3c2-c2cc(NC(=O)c4cccc([N+](=O)[O-])c4Cl)ccc2CC3)cc1` [Example 135, 8-[(2-chloro-3-nitrobenzoyl)amino]-1-[4-(methylsulfonyl)phenyl]-4,5-dihydro-1H-benzo[g]indazole-3-carboxamide], under setting [5], the pIC50 was at least 6.00.

As to `COc1cccc(CC(=O)Nc2ccc3c(c2)-c2c(c(C(N)=O)nn2-c2ccc(S(C)(=O)=O)cc2)CC3)c1` [Example 157, 8-{[(3-methoxyphenyl)acetyl]amino}-1-[4-(methylsulfonyl)phenyl]-4,5-dihydro-1H-benzo[g]indazole-3-carboxamide], the pIC50 under setting [5] was at least 6.00. As for `NC(=O)c1nn(-c2ccc(Br)cc2)c2c1CCc1ccc(NC(=O)c3ccccc3Cl)cc1-2` [Example 350, 1-(4-bromophenyl)-8-[(2-chlorobenzoyl)amino]-4,5-dihydro-1H-benzo[g]indazole-3-carboxamide], under setting [3], the pIC50 was at least 6.00. For `CSc1ccc(Cl)c(C(=O)Nc2ccc3c(c2)-c2c(c(C(N)=O)nn2-c2ccc(F)cc2)CC3)c1` [Example 235, 8-{[2-chloro-5-(methylthio)benzoyl]amino}-1-(4-fluorophenyl)-4,5-dihydro-1H-benzo[g]indazole-3-carboxamide], under setting [4], the pIC50 is at least 6.00.

As for `CCS(=O)(=O)c1ccc(-n2nc(C(N)=O)c3c2-c2cc(NC(=O)c4cc(NC(=O)OC(C)(C)C)ccc4Cl)ccc2CC3)cc1` [Example 397, tert-butyl 3-[({3-(aminocarbonyl)-1-[4-(ethylsulfonyl)phenyl]-4,5-dihydro-1H-benzo[g]indazol-8-yl}amino)carbonyl]-4-chlorophenylcarbamate], the pIC50 under setting [1] is at least 6.00. With `NC(=O)c1nn(-c2ccc(/C=C\CO)cc2)c2c1CCc1ccc(NC(=O)c3cccnc3Cl)cc1-2` [Example 300, 8-{[(2-chloropyridin-3-yl)carbonyl]amino}-1-{4-[(1Z)-3-hydroxyprop-1-enyl]phenyl}-4,5-dihydro-1H-benzo[g]indazole-3-carboxamide], the pIC50 (Table 11, read-out: IKK2 Resin IC50) is at least 6.00.

In the case of `NC(=O)c1nn(-c2ccc3c(c2)OCO3)c2c1CCc1ccc(NC(=O)c3ccc([N+](=O)[O-])cc3Cl)cc1-2` [Example 184, 1-(1,3-benzodiaxol-5-yl)-8-[(2-chloro-4-nitrobenzoyl)amino]-4,5-dihydro-1H-benzo[g]indazole-3-carboxamide], the pIC50 under setting [2] was at least 6.00. As for `NC(=O)c1nn(-c2ccc(F)cc2)c2c1CCc1ccc(NC(=O)c3cccc([N+](=O)[O-])c3Cl)cc1-2` [Example 241, 8-[(2-chloro-3-nitrobenzoyl)amino]-1-(4-fluorophenyl)-4,5-dihydro-1H-benzo[g]indazole-3-carboxamide], the pIC50 under setting [4] is at least 6.00.

In the case of `CN(C)CCSc1ccc(Cl)c(C(=O)Nc2ccc3c(c2)-c2c(c(C(N)=O)nn2-c2ccc4c(c2)OCO4)CC3)n1` [Example 218, 1-(1,3-benzodioxol-5-yl)-8-{[(3-chloro-6-{[2-(dimethylamino)ethyl]thio}pyridin-2-yl)carbonyl]amino}-4,5-dihydro-1H-benzo[g]indazole-3-carboxamide], the pIC50 (Table 5, read-out: IKK2 Resin Avg. IC50) is at least 6.00. Turning to `CC(C)(C)NCC(=O)Nc1ccc2c(c1)-c1c(c(C(N)=O)nn1-c1ccc3c(c1)OCO3)CC2` [Example 450, 1-(1,3-benzodioxol-5-yl)-8-{[N-(tert-butyl)glycyl]amino}-4,5-dihydro-1H-benzo[g]indazole-3-carboxamide], the pIC50 (Table 23, read-out: IKK2 Resin IC50) is at least 6.00. With `CS(=O)(=O)c1ccc(-n2nc(C(N)=O)c3c2-c2cc(NC(=O)c4ccccc4Cl)ccc2CC3)nc1` [Example 367, 8-[(2-chlorobenzoyl)amino]-1-[5-(methylsulfonyl)pyridin-2-yl]-4,5-dihydro-1H-benzo[g]indazole-3-carboxamide], under “read-out: IKK-2 resin IC50”, the pIC50 was at least 6.00. Consider `CS(=O)(=O)c1ccc(-n2nc(C(N)=O)c3c2-c2cc(NC(=O)c4ccc(Cl)cc4N)ccc2CC3)cc1` [Example 117, 8-[(2-amino-4-chlorobenzoyl)amino]-1-[4-(methylsulfonyl)phenyl]-4,5-dihydro-1H-benzo[g]indazole-3-carboxamide], for which the pIC50 (Table 2, read-out: IKK Resin IC50) was at least 6.00. Take `NC(=O)c1nn(-c2ccc([N+](=O)[O-])cc2)c2c1CCc1ccc(NC(=O)c3ccccc3Cl)cc1-2` [Example 324, 8-[(2-chlorobenzoyl)amino]-1-(4-nitrophenyl)-4,5-dihydro-1H-benzo[g]indazole-3-carboxamide]: under setting [3], the pIC50 was at least 6.00. As for `NC(=O)c1nn(-c2cc(F)cc(F)c2)c2c1CCc1ccc(NC(=O)c3ccncc3Cl)cc1-2` [Example 355, 8-[(3-chloroisonicotinoyl)amino]-1-(3,5-difluorophenyl)-4,5-dihydro-1H-benzo[g]indazole-3-carboxamide], the pIC50 under setting [3] was at least 6.00.
